Experimental findings from PubChem BioAssay (NCI) are described below.

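Results reflect a 48-hour exposure of cells in 96-well plates to compound at five concentrations. TGI: concentration producing complete growth inhibition.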 Some results are limits rather than exact numbers.

Some test systems named below: UACC-62 melanoma; OVCAR-8 ovarian; KM12 colon; A549 NSCLC; SK-MEL-5 melanoma; SNB-75 CNS; NCI-H522 lung; T-47D breast; SK-MEL-2 melanoma; UACC-257 melanoma.
Common to all, as to test: inhibition of tumour cell growth, NCI panel, 48 h

`CCn1cnc2c(NC(C)=O)ncnc21`: the TGI in the assay on UACC-62 melanoma, with OVCAR-8 ovarian, in the assay on KM12 colon, with A549 NSCLC, with SK-MEL-5 melanoma and in the assay with SNB-75 CNS was more than 100 µM throughout. The TGI in the assay on NCI-H522 lung, in the assay on T-47D breast, with SK-MEL-2 melanoma and in the assay with UACC-257 melanoma was more than 100 µM in each case.
Regarding `Cc1cccc(NC(=S)N/N=C(/c2ccccc2)c2ccccn2)c1`, the TGI in the assay with UACC-62 melanoma was found to be 15.5 µM; with OVCAR-8 ovarian it was 15.4 µM; in the assay on KM12 colon it was 13.8 µM; in the assay with A549 NSCLC, 14.3 µM; with SK-MEL-5 melanoma it was 7.18 µM; with SNB-75 CNS, 22.1 µM. Further, the TGI came to 14.6 µM in the assay with NCI-H522 lung, 19.6 µM in the assay on T-47D breast, 14.5 µM in the assay with SK-MEL-2 melanoma and 1.57 µM in the assay with UACC-257 melanoma.
Consider `COC(=O)C1CCC(=O)N1C(c1ccc2c(c1)OCO2)c1ccc2c(c1)OCO2` (stereo not drawn), for which the TGI in the assay on UACC-62 melanoma, in the assay on OVCAR-8 ovarian, in the assay with KM12 colon, in the assay with A549 NSCLC, with SK-MEL-5 melanoma and in the assay with SNB-75 CNS was more than 100 µM in each case. Also, the TGI with NCI-H522 lung, in the assay on T-47D breast, in the assay with SK-MEL-2 melanoma and in the assay on UACC-257 melanoma was more than 100 µM throughout.
Regarding `CCNc1ncnc2n[nH]nc12`, the TGI in the assay on UACC-62 melanoma, with OVCAR-8 ovarian, in the assay with KM12 colon, in the assay with A549 NSCLC, in the assay on SK-MEL-5 melanoma and in the assay on SNB-75 CNS was more than 100 µM each time. Moreover, the TGI in the assay with NCI-H522 lung, in the assay with T-47D breast, in the assay with SK-MEL-2 melanoma and with UACC-257 melanoma was more than 100 µM each time.
With `O=C1O[C@H]2[C@@H]3OC(=O)c4cc(O)c(O)c(O)c4-c4c(cc(O)c(O)c4O)C(=O)OC[C@H]2O[C@@H](OC(=O)c2cc(O)c(O)c(O)c2)[C@@H]3OC(=O)c2cc(O)c(O)c3c2[C@@H]2C1=CC(=O)C(O)(O)C2(O)O3` (stereo partly drawn), the TGI in the assay on UACC-62 melanoma was more than 100 µM; with OVCAR-8 ovarian, 40.5 µM; in the assay with KM12 colon it was 80.1 µM; with A549 NSCLC, more than 100 µM; in the assay with SK-MEL-5 melanoma, more than 100 µM; with SNB-75 CNS, 86.4 µM. The TGI is 82.9 µM in the assay on NCI-H522 lung, 90.7 µM in the assay with T-47D breast, more than 100 µM with SK-MEL-2 melanoma and more than 100 µM with UACC-257 melanoma.
Take `CC1(C)CC[C@]2(C(=O)O)CC[C@]3(C)C(=CC[C@@H]4[C@@]5(C)CC[C@H](OC6OC(CO)C(O)C(O)C6OC6OC(CO)C(O)C(O)C6O)C(C)(C)[C@@H]5CC[C@]43C)[C@@H]2C1` (stereo partly drawn): the TGI in the assay on UACC-62 melanoma came out at 34.2 µM; in the assay with OVCAR-8 ovarian it was 35.2 µM; in the assay on KM12 colon, 29.4 µM; in the assay with A549 NSCLC, 33.7 µM; in the assay with SK-MEL-5 melanoma, 33.7 µM; in the assay with SNB-75 CNS, 36.3 µM. In addition, the TGI amounted to 38 µM in the assay with NCI-H522 lung, 44.8 µM in the assay with T-47D breast, 2.48 µM with SK-MEL-2 melanoma and 42 µM in the assay on UACC-257 melanoma.
Turning to `COc1cc(OC)nc(Nc2c(C#N)c3nc4ccccc4n3c3ccccc23)n1`, the TGI is more than 100 µM in the assay with UACC-62 melanoma; more than 100 µM in the assay on OVCAR-8 ovarian; more than 100 µM with KM12 colon; more than 100 µM with A549 NSCLC; more than 100 µM in the assay on SK-MEL-5 melanoma; 37.6 µM in the assay on SNB-75 CNS. Moreover, the TGI with NCI-H522 lung was 64 µM; in the assay with T-47D breast, more than 100 µM; in the assay on SK-MEL-2 melanoma, 71.1 µM; in the assay on UACC-257 melanoma, more than 100 µM.
As for `COC(Cc1ccccc1)NC(C)=O` (stereo not drawn), the TGI in the assay with UACC-62 melanoma, with OVCAR-8 ovarian, in the assay with KM12 colon, in the assay with A549 NSCLC, in the assay on SK-MEL-5 melanoma and with SNB-75 CNS was more than 100 µM each time. Also, the TGI in the assay with NCI-H522 lung, in the assay on T-47D breast, in the assay with SK-MEL-2 melanoma and in the assay on UACC-257 melanoma was more than 100 µM throughout.
Regarding `CN(C(=O)c1cccs1)C(=S)N1CCN(c2ccccc2)CC1`, the TGI in the assay on UACC-62 melanoma, in the assay on OVCAR-8 ovarian, with KM12 colon, in the assay with A549 NSCLC, in the assay on SK-MEL-5 melanoma and in the assay on SNB-75 CNS was more than 100 µM throughout. Also, the TGI in the assay on NCI-H522 lung, in the assay on T-47D breast, in the assay on SK-MEL-2 melanoma and with UACC-257 melanoma was more than 100 µM throughout.
`C/C(=N\Nc1nc2ccccc2o1)c1ccncn1`: the TGI is 35.7 µM in the assay with OVCAR-8 ovarian; 11.6 µM with KM12 colon; more than 32.7 µM with A549 NSCLC; more than 81.6 µM in the assay on SK-MEL-5 melanoma; more than 48.2 µM with SNB-75 CNS; more than 32.7 µM with NCI-H522 lung. Further, the TGI in the assay with T-47D breast is 23.2 µM; with SK-MEL-2 melanoma it was more than 25.8 µM; in the assay with UACC-257 melanoma, more than 27.5 µM.
On to `COc1cccc(-n2c(N)c(-c3nc4cc(C(F)(F)F)ccc4s3)c3ccc([N+](=O)[O-])cc3c2=O)c1`, for which the TGI with UACC-62 melanoma, in the assay on KM12 colon, in the assay with A549 NSCLC, with SK-MEL-5 melanoma, in the assay on SNB-75 CNS and in the assay with NCI-H522 lung was more than 100 µM each time. For the same compound, the TGI in the assay with T-47D breast, in the assay on SK-MEL-2 melanoma and with UACC-257 melanoma was more than 100 µM throughout.
